The target of test [1] is T1, human BRD4 bromodomain II (Homo sapiens, UniProt O60885).
T1 construct: human BRD4 bromodomain II [based on Genbank NM_058243, residues 349-460]; host or cells: E. coli
In words: Bromodomain binding assay (AlphaScreen), BRD4 BDII. In outline:
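Tagged BRD4 BDI or BDII constructs, expressed in E. coli, competed against a K5/K8/K12/K16-acetylated biotin-H4 peptide. Proximity signal between bead pairs after room-temperature incubations gave concentration-response curves, from which IC50 was derived.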
In general terms: In Alpha technology, singlet oxygen from a donor bead excites a nearby acceptor bead.

Test [2] deals with human SKM-1 acute myeloid leukemia cells. Kind of test: SKM-1 antiproliferation cell-based assay (ATPlite). As to conditions: Homo sapiens. A digest of the protocol:
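Log-phase cells in RPMI 1640/15% FBS were seeded at 34722 cells/mL and exposed for 4 days to nine-concentration DMSO serial dilutions in triplicate. Viability was read as ATP luminescence (ATPlite 1step), and IC50 values came from variable-slope non-linear regression.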
On the technique in general: Cellular ATP, detected with luciferase, serves as a proxy for viable cell number.

Setting [3] is: BRD4 BDII AlphaScreen assay, read-out: BRD4 BD2 IC50.
The mark [4] stands for this setting: SKM-1, SKM-1 antiproliferation assay.
[5] abbreviates: AlphaScreen assay, Table C2, read-out: BRD4 BDII IC50.
[6] abbreviates: SKM-1, 96 h, SKM-1 antiproliferation assay, 4 days, Table C2.

In patent US20250179059A1 (The Regents of the University of California, priority 2021, published 2025) one finds IC50 and GI50 data, which are given here for 20 molecules.

Like-named read-outs stand apart in the source and are kept apart here.

On to `CNc1ncc(-c2nccc(-c3ccc(-n4ccn(C)c4=O)c(Cl)c3)c2O)cc1N1CCN(C(C)(C)C)CC1` [Example 986, 1-(4-(5′-(4-(tert-butyl)piperazin-1-yl)-3-hydroxy-6′-(methylamino)-[2,3′-bipyridin]-4-yl)-2-chlorophenyl)-3-methyl-1H-imidazol-2(3H)-one], for which the concentration for half-maximal inhibition (IC50) in test [1] (setting [3]) lay in the range of 1 to 10 nM. Also, the GI50 in test [2] (setting [4]) lay within 0.3 to 30 nM.
For `CC(C)N1CC2CN(c3cccc(-c4cc(F)cc(-c5ccc(-n6ccn(C)c6=O)c(Cl)c5)c4O)c3)CC2C1` (stereo not shown) [Example 946, 1-(3-chloro-5′-fluoro-2′-hydroxy-3″-(5-isopropylhexahydropyrrolo[3,4-c]pyrrol-2(1H)-yl)-[1,1′:3′,1″-terphenyl]-4-yl)-3-methyl-1,3-dihydro-2H-imidazol-2-one], the IC50 in test [1] (setting [3]) was in the range of 1 to 10 nM. This molecule displayed a 50% growth inhibitory concentration (GI50) in test [2] (setting [4]) of 30 to 300 nM.
For the molecule `CN1CCN(c2ccc(-c3cc(F)cc(-c4ccc(=O)n(C5CCNCC5)c4)c3O)cc2Cl)C1=O` [Example 477, 5-(3′-chloro-5-fluoro-2-hydroxy-4′-(3-methyl-2-oxoimidazolidin-1-yl)-[1,1′-biphenyl]-3-yl)-1-(piperidin-4-yl)pyridin-2(1H)-one], the IC50 in test [1] (setting [5]) was 1 to 10 nM. Besides, the GI50 in test [2] (setting [6]) is 30 to 300 nM.
Regarding `Cc1cc(-c2ccc(-n3ccn(C)c3=O)c(Cl)c2)c(O)c(-c2cc(N3CCN(C(C)(C)C)CC3)c3nccn3c2)n1` [Example 971, 1-(4-(2-(8-(4-(tert-butyl)piperazin-1-yl)imidazo[1,2-a]pyridin-6-yl)-3-hydroxy-6-methylpyridin-4-yl)-2-chlorophenyl)-3-methyl-1H-imidazol-2(3H)-one], the IC50 in test [1] (setting [3]) lay within 0.01 to 1 nM. For the same molecule, the concentration for 50% growth inhibition (GI50) in test [2] (setting [4]) lay within 0.3 to 30 nM.
Turning to `COc1ncc(-c2cc(F)cc(-c3ccc(-n4ccn(C)c4=O)c(Cl)c3)c2O)cc1N1CCC2(CCCN2C(C)C)C1` (stereo not shown) [Example 913, 1-(3-chloro-5′-fluoro-2′-hydroxy-3′-(5-(1-isopropyl-1,7-diazaspiro[4.4]nonan-7-yl)-6-methoxypyridin-3-yl)-[1,1′-biphenyl]-4-yl)-3-methyl-1H-imidazol-2(3H)-one], the concentration for half-maximal inhibition (IC50) in test [1] (setting [3]) was 0.01 to 1 nM. The GI50 in test [2] (setting [4]) lay within 0.3 to 30 nM.
In the case of `C[C@@H]1CN(c2cc(-c3cccc(-c4ccc(N5CCN(C)C5=O)c(F)c4)c3O)ccn2)CCN1` [Example 289, (R)-1-(3-fluoro-2′-hydroxy-3′-(2-(3-methylpiperazin-1-yl)pyridin-4-yl)-[1,1′-biphenyl]-4-yl)-3-methylimidazolidin-2-one], in test [1] (setting [5]), the concentration for half-maximal inhibition (IC50) is 1 to 10 nM. The same molecule displayed a 50% growth inhibitory concentration (GI50) in test [2] (setting [6]) of 30 to 300 nM.
With `Cc1cc(-c2ccc(-n3cc[nH]c3=O)c(Cl)c2)c(O)c(-c2cccc(N3CCN(C(C)(C)C)CC3)c2)n1` [Example 1035, 1-(4-(2-(3-(4-(tert-butyl)piperazin-1-yl)phenyl)-3-hydroxy-6-methylpyridin-4-yl)-2-chlorophenyl)-1,3-dihydro-2H-imidazol-2-one], the IC50 in test [1] (setting [3]) was in the range of 10 to 100 nM. Also, the GI50 in test [2] (setting [4]) is 30 to 300 nM.
Turning to `CC(=O)Nc1ccc(-c2cccc(-c3ccnc(N4CC[C@H](N)C4)c3)c2O)cc1F` [Example 248, (S)-N-(3′-(2-(3-aminopyrrolidin-1-yl)pyridin-4-yl)-3-fluoro-2′-hydroxy-[1,1′-biphenyl]-4-yl)acetamide], the IC50 in test [1] (setting [5]) was 1 to 10 nM. Moreover, the concentration for 50% growth inhibition (GI50) in test [2] (setting [6]) was 30 to 300 nM.
For `CN1CCN(c2ccc(-c3cccc(-c4cccc(N5CCNCC5)c4)c3O)cc2F)C1=O` [Example 164, 1-(3-Fluoro-2′-hydroxy-3″-(piperazin-1-yl)-[1,1′:3′,1″-terphenyl]-4-yl)-3-methylimidazolidin-2-one] the same measures were 1 to 10 nM and 300 to 3000 nM.
On to `COC(=O)c1cc(-c2ccnc(N3CCNCC3)c2)c(O)c(-c2ccc(NC(C)=O)c(F)c2)c1` [Example 290, Methyl 4′-acetamido-3′-fluoro-6-hydroxy-5-(2-(piperazin-1-yl)pyridin-4-yl)-[1,1′-biphenyl]-3-carboxylate], for which the IC50 in test [1] (setting [5]) is greater than 100 nM. The GI50 in test [2] (setting [6]) was no less than 3000 nM.
On to `Cn1ccn(-c2ccc(-c3cc(F)cc(-c4ccnc(N5CCC(O)(C6CC6)C5)c4)c3O)cc2Cl)c1=O` (stereo not shown) [Example 718, 1-(3-chloro-3′-(2-(3-cyclopropyl-3-hydroxypyrrolidin-1-yl)pyridin-4-yl)-5′-fluoro-2′-hydroxy-[1,1′-biphenyl]-4-yl)-3-methyl-1H-imidazol-2(3H)-one], for which the 50% inhibitory concentration (IC50) in test [1] (setting [5]) was 0.01 to 1 nM. In test [2] (setting [6]), this molecule yielded a GI50 of 0.3 to 30 nM.
Taken in the same sequence, the figures for `Cn1ccn(-c2ccc(-c3cc(F)cc(-c4cc(N5CCC[C@H](N)C5)c5cn[nH]c5c4)c3O)cc2Cl)c1=O` [Example 578] were 0.01 to 1 nM and 0.3 to 30 nM.
Take `Cn1ccn(-c2ccc(-c3cc(F)cc(-c4cccc(N5CCN(C(C)(C)C)CC5)c4)c3O)cc2Cl)c1=O` [Example 734, 1-(3″-(4-(tert-butyl)piperazin-1-yl)-3-chloro-5′-fluoro-2′-hydroxy-[1,1′:3′,1″-terphenyl]-4-yl)-3-methyl-1H-imidazol-2(3H)-one]: the IC50 in test [1] (setting [5]) is 0.01 to 1 nM. In test [2] (setting [6]), the 50% growth inhibitory concentration (GI50) lay within 0.3 to 30 nM.
For `CN1CCN(c2ccc(-c3cc(F)cc(-c4cnc(-c5cn[nH]c5)c(N5CCNCC5)c4)c3O)cc2Cl)C1=O` [Example 390, 1-(3-chloro-5′-fluoro-2′-hydroxy-3′-(5-(piperazin-1-yl)-6-(1H-pyrazol-4-yl)pyridin-3-yl)-[1,1′-biphenyl]-4-yl)-3-methylimidazolidin-2-one] the same measures were 1 to 10 nM and 300 to 3000 nM.
For `Cn1ccn(-c2ccc(-c3cc(F)cc(-c4ccnc(N5CCC6(CCCN6)C5)c4)c3O)cc2Cl)c1=O` (stereo not shown) [Example 636, 1-(3′-(2-(1,7-diazaspiro[4.4]nonan-7-yl)pyridin-4-yl)-3-chloro-5′-fluoro-2′-hydroxy-[1,1′-biphenyl]-4-yl)-3-methyl-1H-imidazol-2(3H)-one] the same measures were 0.01 to 1 nM and 0.3 to 30 nM.
In the case of `Cn1ccn(-c2ccc(-c3cc(F)cc(-c4cncc(N5CCNC6(CC6)C5)c4)c3O)cc2Cl)c1=O` [Example 550, 1-(3′-(5-(4,7-diazaspiro[2.5]octan-7-yl)pyridin-3-yl)-3-chloro-5′-fluoro-2′-hydroxy-[1,1′-biphenyl]-4-yl)-3-methyl-1H-imidazol-2(3H)-one], the half-maximal inhibitory concentration (IC50) in test [1] (setting [5]) was in the range of 0.01 to 1 nM. The molecule further showed a concentration for 50% growth inhibition (GI50) in test [2] (setting [6]) of 0.3 to 30 nM.
`Cc1ncc(-c2cc(F)cc(-c3ccc(-n4ccn(C)c4=O)c(Cl)c3)c2O)cc1N1CC(C)(C)[C@](C)(O)C1` [Example 884]: the concentration for half-maximal inhibition (IC50) in test [1] (setting [3]) was 1 to 10 nM. Besides, the 50% growth inhibitory concentration (GI50) in test [2] (setting [4]) was 30 to 300 nM.
Taken in the same sequence, the figures for `Cn1ccn(-c2ccc(-c3cc(F)cc(-c4cccc(-c5cccc(CO)c5)c4)c3O)cc2Cl)c1=O` [Example 865] were 10 to 100 nM and 300 to 3000 nM.
Take `Cn1ccn(-c2ccc(-c3cc(F)cc(-c4ccnc(N5CC[C@@H](O)[C@H](N)C5)c4)c3O)cc2Cl)c1=O` [Example 487, 1-(3′-(2-((3R,4R)-3-amino-4-hydroxypiperidin-1-yl)pyridin-4-yl)-3-chloro-5′-fluoro-2′-hydroxy-[1,1′-biphenyl]-4-yl)-3-methyl-1H-imidazol-2(3H)-one]: the half-inhibitory concentration (IC50) in test [1] (setting [5]) was 1 to 10 nM. The molecule further gave a GI50 in test [2] (setting [6]) of 30 to 300 nM.
Taken in the same sequence, the figures for `[2H]C([2H])([2H])n1ccn(-c2ccc(-c3cc(F)cc(-c4ccnc(N5CC[C@H](N)C5)c4)c3O)cc2Cl)c1=O` [Example 451, (S)-1-(3′-(2-(3-aminopyrrolidin-1-yl)pyridin-4-yl)-3-chloro-5′-fluoro-2′-hydroxy-[1,1′-biphenyl]-4-yl)-3-deuteromethyl-1H-imidazol-2(3H)-one] were 0.01 to 1 nM and 0.3 to 30 nM.

The IC50 is the concentration needed to halve the response being measured. For orientation: GI50 means the concentration giving 50% growth inhibition. A high value points to lower sensitivity of the cells.
